Measured values as given in the supplement of paper PMC10307832.

Assays:
Assay in all cases: relative viability (nuclei count vs DMSO), 5 days (fraction); higher = more cells survive
Tipifarnib + Vorinostat = compound: Cn1cncc1[C@@](N)(c1ccc(Cl)cc1)c1ccc2c(c1)c(-c1cccc(Cl)c1)cc(=O)n2C [Tipifarnib] + O=C(CCCCCCC(=O)Nc1ccccc1)NO [Vorinostat] (partner 1 µM)
Summary of the method: (§1)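 Lung cancer cell lines in 1536-well plates got either a single drug or a fixed anchor-drug dose together with five library-drug doses (not always all listed) in √10 steps, by pin tool, on the day after seeding. Nuclei were counted after 5 days, and relative viability is the treated-to-vehicle ratio of nuclei counts. Values are medians of duplicate plates.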

Tipifarnib + Pemetrexed = compound: Cn1cncc1[C@@](N)(c1ccc(Cl)cc1)c1ccc2c(c1)c(-c1cccc(Cl)c1)cc(=O)n2C [Tipifarnib] + Nc1nc2[nH]cc(CCc3ccc(C(=O)N[C@@H](CCC(=O)O)C(=O)O)cc3)c2c(=O)[nH]1 [Pemetrexed] (partner 0.2 µM)
Summary of the method: as §1

Tipifarnib + Dasatinib = compound: Cn1cncc1[C@@](N)(c1ccc(Cl)cc1)c1ccc2c(c1)c(-c1cccc(Cl)c1)cc(=O)n2C [Tipifarnib] + Cc1nc(Nc2ncc(C(=O)Nc3c(C)cccc3Cl)s2)cc(N2CCN(CCO)CC2)n1 [Dasatinib] (partner 0.075 µM)
Summary of the method: as §1

Tipifarnib + Palbociclib = compound: Cn1cncc1[C@@](N)(c1ccc(Cl)cc1)c1ccc2c(c1)c(-c1cccc(Cl)c1)cc(=O)n2C [Tipifarnib] + CC(=O)c1c(C)c2cnc(Nc3ccc(N4CCNCC4)cn3)nc2n(C2CCCC2)c1=O [Palbociclib] (partner 0.5 µM)
Summary of the method: as §1

Cell Line | relative viability (Tipifarnib + Vorinostat; first compound 0.01 µM) | relative viability (Tipifarnib + Vorinostat; first compound 0.03162 µM) | relative viability (Tipifarnib + Vorinostat; first compound 0.1 µM) | relative viability (Tipifarnib + Vorinostat; first compound 0.3162 µM) | relative viability (Tipifarnib + Vorinostat; first compound 1 µM) | relative viability (Tipifarnib + Pemetrexed; first compound 0.01 µM) | relative viability (Tipifarnib + Pemetrexed; first compound 0.03162 µM) | relative viability (Tipifarnib + Pemetrexed; first compound 0.1 µM) | relative viability (Tipifarnib + Pemetrexed; first compound 0.3162 µM) | relative viability (Tipifarnib + Pemetrexed; first compound 1 µM) | relative viability (Tipifarnib + Dasatinib; first compound 0.01 µM) | relative viability (Tipifarnib + Dasatinib; first compound 0.03162 µM) | relative viability (Tipifarnib + Dasatinib; first compound 0.1 µM) | relative viability (Tipifarnib + Dasatinib; first compound 0.3162 µM) | relative viability (Tipifarnib + Dasatinib; first compound 1 µM) | relative viability (Tipifarnib + Palbociclib; first compound 0.01 µM) | relative viability (Tipifarnib + Palbociclib; first compound 0.03162 µM) | relative viability (Tipifarnib + Palbociclib; first compound 0.1 µM) | relative viability (Tipifarnib + Palbociclib; first compound 0.3162 µM) | relative viability (Tipifarnib + Palbociclib; first compound 1 µM)
NCI-H1793 | 0.635 | 0.643 | 0.737 | 0.404 | 0.292 | 0.89 | 0.748 | 0.703 | 0.522 | 0.389 | 0.455 | 0.43 | 0.34 | 0.246 | 0.243 | 0.29 | 0.258 | 0.228 | 0.213 | 0.233
NCI-H1915 | 0.544 | 0.43 | 0.373 | 0.305 | 0.336 | 0.549 | 0.449 | 0.449 | 0.353 | 0.298 | 0.241 | 0.182 | 0.201 | 0.175 | 0.16 | 0.317 | 0.318 | 0.281 | 0.218 | 0.241
NCI-H1944 | 0.509 | 0.382 | 0.309 | 0.289 | 0.285 | 0.531 | 0.581 | 0.48 | 0.438 | 0.409 | 0.213 | 0.173 | 0.161 | 0.17 | 0.169 | 0.324 | 0.31 | 0.288 | 0.28 | 0.273
NCI-H1975 | 0.639 | 0.682 | 0.588 | 0.485 | 0.491 | 0.258 | 0.285 | 0.3 | 0.241 | 0.251 | 0.383 | 0.356 | 0.412 | 0.238 | 0.185 | 0.615 | 0.536 | 0.524 | 0.39 | 0.35
NCI-H1993 | 0.819 | 0.446 | 0.489 | 0.468 | 0.497 | 0.664 | 0.55 | 0.647 | 0.427 | 0.605 | 0.596 | 0.515 | 0.495 | 0.527 | 0.516 | 0.604 | 0.531 | 0.431 | 0.463 | 0.413
NCI-H2009 | 0.604 | 0.411 | 0.405 | 0.577 | 0.504 | 0.979 | 0.999 | 0.7 | 0.658 | 0.694 | 0.31 | 0.232 | 0.217 | 0.211 | 0.21 | 0.204 | 0.206 | 0.193 | 0.298 | 0.152
NCI-H2023 | 0.598 | 0.366 | 0.289 | 0.186 | 0.137 | 0.242 | 0.289 | 0.19 | 0.212 | 0.198 | 0.561 | 0.427 | 0.325 | 0.299 | 0.217 | 0.297 | 0.284 | 0.238 | 0.211 | 0.202
NCI-H2085 | 0.767 | 0.575 | 0.62 | 0.53 | 0.445 | 0.874 | 0.677 | 0.693 | 0.525 | 0.539 | 0.296 | 0.264 | 0.262 | 0.25 | 0.288 | 0.492 | 0.431 | 0.472 | 0.413 | 0.506
